The values that follow come from patent US5496808A (priority 1991, dated 1996).

Molecules are shown by their SMILES. In brackets after ≈: the same amount, converted by molar mass. Where two headings read alike, the source gives them in different places.

The subject of series [1] is LoVo/DX (colon adenocarcinoma resistant to Doxorubicin). The experiment in a line: cells. The note with it: for IC50: Homo sapiens, 4 h, read-out: Cytotoxicity IC50 LoVo/DX. The text has this:
(§1) Colony assay: 4 hr treatment
(§2) ^(1) IC50 = concentration inhibiting 50% of colony formation
^(2) R.I. = Resistance Index = (IC50 LoVo/DX)(IC50 LoVo)

Series [2] deals with Disseminated P388/DX Johnson Leukemia. The experiment in a line: Antitumor activity "in vivo" against disseminated P388/DX Johnson leukemia, resistant to Doxorubicin. Details: species or system murine. On the procedure: ^(7) 10^5 cell/mouse were injected i.v. on day 0.
(§3) ^(4) Compounds were suspended in Tween 80 10% and injected i.p. one
(§4) day after tumor transplantation.
(§5) ^(5) Median survival time of treated mice/Median survival time of
(§6) ^(6) No. of toxic deaths/total No. of mice.

Series [3] has as its system LoVo (colon adenocarcinama). Kind of series: cells. In kind it is cell-based, human. The conditions noted are these: for IC50: Homo sapiens, read-out: Cytotoxicity IC50 LoVo.
Description: as §1, §2

In a further series the test system is Ascitic P388 Leukemia. Kind of series: Antitumor activity "in vivo" against ascitic P388 leukemia, sensitive to Doxorubicin. Details: species or system murine. Here is the method: ^(3) 10^6 cell/mouse were injected i.p. on day 0.
as §3, §4, §5, §6

Setting [4] is: 22.0 mg/kg i.p. one day after tumor transplantation.
[5] abbreviates: 10.0 mg/kg i.p. one day after tumor transplantation.
Where [6] appears, read: 15.0 mg/kg i.p. one day after tumor transplantation.
The mark [7] stands for this setting: 1.9 mg/kg i.p. one day after tumor transplantation.
Setting [8] is: 2.5 mg/kg i.p. one day after tumor transplantation.
Where [9] appears, read: 0.33 mg/kg i.p. one day after tumor transplantation.
The mark [10] stands for this setting: 0.5 mg/kg i.p. one day after tumor transplantation.
Where [11] appears, read: 0.75 mg/kg i.p. one day after tumor transplantation.
Setting [12] is: 1.2 mg/kg i.p. one day after tumor transplantation.
[13] abbreviates: 1.6 mg/kg i.p. one day after tumor transplantation.
[14] abbreviates: 2.1 mg/kg i.p. one day after tumor transplantation.
The mark [15] stands for this setting: 2.8 mg/kg i.p. one day after tumor transplantation.
Setting [16] is: 3.7 mg/kg i.p. one day after tumor transplantation.
Setting [17] is: 1.0 mg/kg i.p. one day after tumor transplantation.
Setting [18] is: 1.4 mg/kg i.p. one day after tumor transplantation.
[19] abbreviates: 2.0 mg/kg i.p. one day after tumor transplantation.

As to `COc1cccc2c1C(=O)c1c(O)c3c(c(O)c1C2=O)C[C@@](O)(C(=O)CO)C[C@@H]3O[C@H]1C[C@H](N)[C@H](O)[C@H](C)O1` [Doxorubicin, doxorubicin], the values for the IC50 in series [1] (LoVo/DX) and in series [3] (colony assay: 4 hr treatment) were 4.98 µg/mL (≈ 9.15 µM) and 0.0825 µg/mL (≈ 0.152 µM), respectively. Further, the TOX in series [2] (16.9 mg/kg i.p. one day after tumor transplantation) is 0/6; in series [2] (setting [4]), 3/6; in the series on Ascitic P388 Leukemia (setting [5]), 0/10; in the series with Ascitic P388 Leukemia (setting [6]) it was 3/6. Moreover, the “T/C (median survival time of treated mice/controls × 100)” value in series [2] (setting [4]) was 94%; with Ascitic P388 Leukemia (setting [5]), 299%; with Ascitic P388 Leukemia (setting [6]), 90%.
For `CC(=O)[C@]1(O)Cc2c(O)c3c(c(O)c2[C@@H](O[C@H]2C[C@H](N)[C@H](O)[C@H](C)O2)C1)C(=O)c1ccccc1C3=O` [4-demethoxydaunorubicin], the values for the IC50 in series [1] (LoVo/DX) and in series [3] (4 h) were 0.048 µg/mL (≈ 0.0965 µM) and 0.004 µg/mL (≈ 0.00804 µM), respectively. The “R.I. = Resistance Index (IC50 LoVo/DX)(IC50 LoVo)” value in series [1] (human, lovo/dx vs lovo, 240 min) is listed as 12.0. For the same compound, the “T/C (median survival time of treated mice/controls × 100)” value was 106% in series [2] (setting [7]); 89% in series [2] (setting [8]); 142% in the series on Ascitic P388 Leukemia (setting [9]); 160% in the series with Ascitic P388 Leukemia (setting [10]); 163% in the series with Ascitic P388 Leukemia (setting [11]). For the same compound, the TOX in series [2] (setting [7]) is on record as 0/10; in series [2] (setting [8]) it was 0/10; with Ascitic P388 Leukemia (setting [9]) it was 0/27; with Ascitic P388 Leukemia (setting [10]) it was 0/28; in the series with Ascitic P388 Leukemia (setting [11]), 4/28.
Take `CC(=O)[C@]1(O)Cc2c(O)c3c(c(O)c2[C@@H](O[C@H]2C[C@H](N(CCCl)CCCl)[C@H](OS(C)(=O)=O)[C@H](C)O2)C1)C(=O)c1ccccc1C3=O` [compound 1h, 4-demethoxy-4'-O-methansulfonyl-N,N-bis(2-chloroethyl)daunorubicin]: in series [1] (LoVo/DX versus LoVo, colony assay: 4 hr treatment), the “R.I. = Resistance Index (IC50 LoVo/DX)(IC50 LoVo)” value worked out at 3.3. Besides, the “Cytotoxicity IC50 LoVo/DX” value in series [1] (LoVo/DX, colony assay: 4 hr treatment) amounted to 0.014 µg/mL. Besides, the “activity on the doxorubicin-resistant cell line compared with 4-demethoxydaunorubicin and Doxorubicin” value in series [1] (LoVo/DX, in comparison with 4-demethoxydaunorubicin (3b) and Doxorubicin (3c)) is “striking higher activity”. Moreover, the “T/C (median survival time of treated mice/controls × 100)” value is 133% in series [2] (setting [12]); 144% in series [2] (setting [13]); 185% in series [2] (setting [14]); 220% in series [2] (setting [15]); 250% in series [2] (setting [16]); 184% in the series with Ascitic P388 Leukemia (setting [17]). Also, the “T/C (median survival time of treated mice/controls × 100)” value in the series with Ascitic P388 Leukemia (setting [18]) is reported as 217%; in the series with Ascitic P388 Leukemia (setting [19]) it was 233%; in the series with Ascitic P388 Leukemia (setting [15]), 78%. Besides, the TOX in series [2] (setting [12]) is recorded as 0/6; in series [2] (setting [13]) it was 0/6; in series [2] (setting [14]), 0/6; in series [2] (setting [15]) it was 0/6; in series [2] (setting [16]), 0/6; in the series on Ascitic P388 Leukemia (setting [17]), 0/12. In addition, the figures for the TOX with Ascitic P388 Leukemia (setting [18]), in the series on Ascitic P388 Leukemia (setting [19]) and with Ascitic P388 Leukemia (setting [15]) were 0/6, 1/6 and 6/6, respectively. In addition, the “activity when tested on resistant Leukemia” value in series [2] (P388 resistant to Doxorubicin (Johnson)) is listed as “high activity”. The “Cytotoxicity IC50 LoVo” value in series [3] (colony assay: 4 hr treatment) is 0.0043 µg/mL.
